Here are results for one molecule from ChEMBL document CHEMBL4622837, “Finding the mechanism of esterase D activation by a small molecule” (Bioorg Med Chem Lett, 2020).

pKd: −log10 of the molar value. Active and inactive are the calls of the source. No cut-off for these calls is given here.

The target in test [1] is T1, S-formylglutathione hydrolase (Homo sapiens) (UniProt P10768).
T1 sequence (whole entry): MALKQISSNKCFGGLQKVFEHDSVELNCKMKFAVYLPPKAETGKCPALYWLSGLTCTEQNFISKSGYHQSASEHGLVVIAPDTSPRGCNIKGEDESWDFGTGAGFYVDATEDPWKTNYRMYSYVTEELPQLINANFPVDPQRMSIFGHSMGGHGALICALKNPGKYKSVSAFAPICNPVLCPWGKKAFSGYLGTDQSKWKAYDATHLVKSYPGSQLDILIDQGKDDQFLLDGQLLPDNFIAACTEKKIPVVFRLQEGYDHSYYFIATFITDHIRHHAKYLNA
In words: Activation of human ESD expressed in HEK293T cells transfected with pEGFP-N1 at 0.1 uM after 24 hrs. The format is cell-based. As to conditions: HEK-293T.

In test [2] the target is T1, S-formylglutathione hydrolase (Homo sapiens). The experiment in a line: Activation of ESD in human L02 cells at 0.1 to 1 uM after 24 hrs. It is filed as cell-based.
For test [3] the target is unchanged. The experiment in a line: Activation of human ESD expressed in HEK293T cells transfected with pEGFP-N1 assessed as protein redistribution in cytoplasm by fluorescence microscopic analysis. As to conditions: HEK-293T. It is filed as cell-based.
For test [4] the target is unchanged. In words: Activation of human ESD expressed in HEK293T cells transfected with pEGFP-N1 assessed as compound co-localization with protein by fluorescence microscopic analysis. As to conditions: HEK-293T. The format is cell-based.
Test [5] has the same target. In words: Inhibition of IgG binding to ESD in human L02 cells by immuno precipitation assay. The format is cell-based.
For test [6] the target is unchanged. In words: Binding affinity to human ESD expressed in HEK293T cells assessed as association rate constant. It is filed as cell-based. The settings on record: HEK-293T.
Test [7] has as its target T2, S-formylglutathione hydrolase (Homo sapiens, UniProt P10768).
T2 sequence (P10768 whole entry): T1 sequence (whole entry)
The experiment in a line: Binding affinity to human ESD expressed in HEK293T cells assessed as dissociation rate constant. It is filed as cell-based. As to conditions: hek-293t.

Test [8] deals with T2, S-formylglutathione hydrolase. In words: Binding affinity to human ESD expressed in HEK293T cells assessed as dissociation constant. The format is cell-based, HEK-293T.
The target in test [9] is T1, S-formylglutathione hydrolase (Homo sapiens). In words: Activation of wild type human ESD expressed in HEK293T cells assessed as increase in protein mono ubiquitination at 0.1 to 1 uM incubated for 12 hrs by Western blot analysis. The settings on record: HEK-293T. It is filed as cell-based. In general terms: A western blot detects proteins with antibodies after separation by electrophoresis.

Test [10] concerns HEK-293T. The experiment in a line: Activation of ESD K180A mutant (unknown origin) expressed in HEK293T cells transfected with p-EGFP assessed as increase in protein mono ubiquitination at 0.1 to 1 uM measured up to 36 hrs by Western blot analysis. The format is cell-based. The settings on record: Homo sapiens.
The test system of test [11] is HEK-293T. In words: Activation of ESD K213A mutant (unknown origin) expressed in HEK293T cells transfected with p-EGFP assessed as increase in protein mono ubiquitination at 0.1 to 1 uM measured up to 36 hrs by Western blot analysis. The settings on record: Homo sapiens. It is filed as cell-based.
Test [12] deals with T1, S-formylglutathione hydrolase (Homo sapiens). In words: Activation of human ESD expressed in HEK293T cells transfected with pEGFP-N1 assessed as induction of protein mono ubiquitination at 5 uM after 3 hrs by immunoblotting analysis. The format is cell-based. As to conditions: HEK-293T.
For test [13] the target is unchanged. The experiment in a line: Activation of human ESD expressed in HEK293T cells transfected with pEGFP-N1 assessed as induction of protein mono ubiquitination at 1 to 5 uM after 6 hrs by immunoblotting analysis. The format is cell-based. The settings on record: HEK-293T.
For test [14] the target is unchanged. The experiment in a line: Activation of human ESD expressed in HEK293T cells transfected with pEGFP-N1 assessed as increase in protein mono ubiquitination at 0.1 to 5 uM after 12 to 24 hrs by immunoblotting analysis. The format is cell-based. The settings on record: HEK-293T.
In test [15] the test system is HEK-293T. In words: Activation of ESD K180A mutant (unknown origin) expressed in HEK293T cells transfected with p-EGFP assessed as protein mono ubiquitination at 0.1 to 1 uM measured up to 24 hrs by Western blot analysis. It is filed as cell-based. The settings on record: Homo sapiens.
The test system of test [16] is HEK-293T. The experiment in a line: Activation of ESD K213A mutant (unknown origin) expressed in HEK293T cells transfected with p-EGFP assessed as induction of protein mono ubiquitination at 0.1 to 1 uM measured up to 24 hrs by immunoblotting analysis. The format is cell-based. The settings on record: Homo sapiens.
For test [17], the system named is HeLa. In words: Activation of ESD K180A mutant (unknown origin) expressed in human HeLa cells transfected with p-EGFP assessed as compound co-localization with protein by fluorescence microscopic analysis. The format is cell-based.
Test [18] has as its system HeLa. In words: Activation of ESD K213A mutant (unknown origin) expressed in human HeLa cells transfected with p-EGFP assessed as protein co-localization by fluorescence microscopic analysis. The format is cell-based.
The test system of test [19] is HeLa. The experiment in a line: Activation of ESD K180A mutant (unknown origin) expressed in human HeLa cells transfected with p-EGFP at 0.1 uM. It is filed as cell-based.
For test [20], the system named is HeLa. In words: Activation of ESD K213A mutant (unknown origin) expressed in human HeLa cells transfected with p-EGFP at 0.1 uM. It is filed as cell-based.
Test [21] has as its target T1, S-formylglutathione hydrolase (Homo sapiens). In words: Inhibition of IgG binding to human ESD expressed in HEK293T cells. It is filed as cell-based. As to conditions: HEK-293T.
The test system of test [22] is HEK-293T. In words: Inhibition of IgG binding to ESD K180A mutant (unknown origin) expressed in HEK293T cells. It is filed as cell-based. As to conditions: Homo sapiens.
The test system of test [23] is HEK-293T. The experiment in a line: Inhibition of IgG binding to ESD K213A mutant (unknown origin) expressed in HEK293T cells. It is filed as cell-based. As to conditions: Homo sapiens.

In general, pKd refers to −log10 of the Kd, conventionally taken in molar units. As for `Oc1ccc(Cl)cc1C1=NN(c2ccccn2)C(c2ccccc2)C1` (stereo not drawn), the outcome in test [1], in test [2], in test [3], in test [4], in [9] and in [12] was Active. In addition, the outcome in test [13] and in test [14] was Active. Moreover, the inhibition entry in test [5] and in [21] was “Dose-dependent effect” in each case. Besides, the Ka in test [6] was found to be 5.2 ×10⁵ /M/s. The Kd in [7] is reported as 4.4 ×10⁻⁴ /s. For the same molecule, the pKd in [8] was 9.10. Further, the result with HEK-293T [10], in the test on HEK-293T [11], with HEK-293T [15], with HEK-293T [16], with HeLa [17] and with HeLa [18] was inactive. The outcome with HeLa [19] and with HeLa [20] was inactive. For the same molecule, the inhibition result in the test on HEK-293T [22] and with HEK-293T [23] was “inactive” each time.
